For assay [1], the system named is human embryonic stem cell line H9. Nature of the assay: Real-time PCR of marker gene expression, H9 on MEF (Examples 2-7). It is filed as cell-based. Here is the method: Cells were harvested at the time points indicated in FIG. 3 and assayed by PCR for the expression of genes shown (FIGS. 3, 4 and 5).
After this time interval, the cells were then treated for six days with combinations of retinoic acid and FGF as outlined in Example 2, then the culture medium was removed and replaced with medium comprising DMEM/F12 with 2% FBS, containing the γ-secretase inhibitors L-685,458 at 10 μM for three days.
Cells were continuously cultured for another 3 to 5 days in basal medium with retinoic acid at 1 μM, alone or with bFGF. RNA samples were harvested from cells at various time points along this process to help evaluate the directed differentiation of the cells. Furthermore, culture medium and factors were regularly removed and replenished throughout the differentiation protocol.
RNA extraction, purification, and cDNA synthesis. RNA samples were purified by binding to a silica-gel membrane (Rneasy Mini Kit, Qiagen, CA) in the presence of an ethanol-containing, high-salt buffer followed by washing to remove contaminants. The RNA was further purified using a TURBO DNA-free kit (Ambion, INC), and high-quality RNA was then eluted in water. Yield and purity were assessed by A260 and A280 readings on a spectrophotometer. cDNA copies were made from purified RNA using an ABI (ABI, CA) high capacity cDNA archive kit.
(§1) Real-time PCR amplification and quantitative analysis.
(§2) Final data were expressed relative to a calibrator sample.
Background: In qPCR the cycle at which signal appears reflects the starting amount.

Assay [2] concerns human embryonic stem cells (H9, H7) on MATRIGEL
Nature of the assay: Real-time PCR of definitive endoderm markers, DE protocol on […] or fibronectin (feeder-free). It is filed as cell-based. Particulars: for definitive endoderm markers (real-time PCR): H7 and H9, low serum+AA+/−Wnt ligands, 5 days. The protocol: as §1, §2
Differentiation of embryonic stem cells to definitive endoderm was carried out as previously described in Nature Biotechnology 23, 1534-1541 (December 2005). […] In all subsequent examples unless otherwise noted, this treatment regimen will be referred to as the definite endoderm (DE) protocol. In parallel, H9, H7, or H1 cells cultured on MEF feeders were also exposed to the same DE protocol outlined above.
At day 5, the cultures were analyzed by FACS for CXCR4, E-cadherin, CD9, CD99, and N-cadherin (CD56) expression and by real time PCR for SOX-17, SOX-7, Alpha-fetal protein (AFP), CXCR4, Brychyury (Bry), gooscecoid (GSC), HNF-3 beta, and GATA4. AFP and SOX-7 are regarded as visceral endoderm markers while GATA4, HNF-3beta and SOX-17 represent definite endoderm markers and GSC, Bry, and CXCR4 represent markers of primitive streak.
In some of the cultures 20 ng/ml Wnt-3a (Catalog #1324-WN-002, R&D Systems, MN), 20 ng/ml Wnt-5a (Catalog #654-WN-010, R&D Systems, MN), 25 ng/ml Wnt-7a (Catalog #3008-WN-025, R&D Systems, MN), or 25 ng/ml Wnt-5b (Catalog #3006-WN-025, R&D Systems, MN) was added throughout the five day treatment. FIG. 24 depicts phase contrast images of H9P46 definitive endoderm culture in the presence of high concentration of (a) AA or (b) AA+20 ng/ml Wnt-3a. FIG. 25 depicts the expression of CXCR4 by FACS at day 5 for H7P44, and H9P46 lines cultured on […] (1:30 dilution) and exposed to the DE protocol+Wnt-3a (FIG. 25, panels b and d) and −Wnt-3a (FIG. 25, panels a and c).
Control cultures were not treated with Wnt-3a. FIG. 27, panel a depicts the expression of CXCR4 by FACS at day 5 in the absence of Wnt-3a, b) 10 ng/ml Wnt-3a, c) 20 ng/ml Wnt-3a and d) 50 ng/ml Wnt-3a. In the absence of Wnt-3a the expression of CXCR4 was very low. […] Real-time PCR results (FIG. 28, panel a) also confirm this finding.
In a separate study, H9 p52 cells were plated on 1:30 low growth factor […]™. For the first 2 days of the DE protocol a range of Wnt3A doses was used: 10 ng/ml, 5 ng/ml and 1 ng/ml. […] The number of cells at the end of the experiment is noted in FIG. 28, panel c.
In order to confirm that the effect of Wnt-3a was through the Wnt pathway, a GSK-3 inhibitor was used to activate the downstream targets of Wnt, such as beta catenin. […] FIG. 29, panel a depicts the expression of CXCR4 by FACS at day 5 in the absence of Wnt-3a or GSK-3B inhibitor, b) +20 ng/ml Wnt-3a, c) +1000 nM GSK-3B inhibitor IX, d) +500 nM GSK-3B inhibitor IX, e) +100 nM GSK-3B inhibitor IX, f) +10 nM GSK-3B inhibitor IX, g) +100 nM GSK-3B inhibitor IX for days 1-2, and h) +10 nM GSK-3B inhibitor IX for days 1-2.
FIG. 31 panels a-d is for H9P49 cells and panels e-f is for H1P46 cells.
Results are expressed as fold increase over untreated cells. […] Results are expressed as fold increase over untreated cells.
H9P55 cells were grown and differentiated on human fibronectin or regular growth factor […]™ (BD Biosciences). lml of DMEM/F12 (Invitrogen/GIBCO) containing 1 ug/ml of human fibronectin (R&D systems, MN) was added to each well of 6 well tissue culture treated dish. Alternatively, regular growth factor […]™ was diluted 1:10 in DMEM/F12 and 1 ml of diluted […]™ was added to each well of 6 well tissue culture treated dish. Cells were passed with collagenase. […] Real-time PCR results (FIG. 39) confirm that formation of definitive endoderm was equivalent on fibronectin and […]™ coated plates.
To determine if the addition of Wnt-3a was causing the increase in differentiation, an inhibitor of Wnt-3 signaling was added to the cultures. […] H9 cells were cultured on plates coated with Growth Factor Reduced […] at a 1:30 dilution. The plates were coated with […] for 1 hr at room temperature. […]

The test system of another assay is H9P44 cells. Nature of the assay: RT-PCR of definitive endoderm markers, growth factor combinations in low serum on MEFs (Example 22). It is filed as cell-based, human. Particulars: H9P44 on MEF; Day 3; normalized to Group 1 (control). Here is the method:
as §1, §2
H9P44 cells were plated onto 6 well plates previously coated with mitomycin treated mouse embryonic fibroblasts (MEF). Cells were grown until 70 to 80% confluency in ES cell medium consisting of DMEM/F12 (Invitrogen/GIBCO) supplemented with 20% knockout serum replacement, 100 nM MEM nonessential amino acids, 0.5 mM beta-mercaptoethanol, 2 mM L-glutamine (all from Invitrogen/GIBCO) and 8 ng/ml human basic fibroblast growth factor (bFGF) (R&D Systems).
Growth factors were added to increasing concentration of FBS in a stepwise manner as indicated in the following regimen: • Day 0: 0% FBS in DMEM/F12 • Day 1: 0.5% FBS in DMEM/F12 • Day 2: 2% FBS in DMEM/F12. • Day 3: Cells were harvested for FACS analysis and RT-PCR.
All growth factors were purchased from R&D Systems, MN. A detailed description and concentration of growth factors for each treatment group is shown below.
For RT-PCR analysis, cells were analyzed for expression of selected panel of definitive endoderm markers.

Take `CC(C)C[C@H](NC(=O)[C@H](Cc1ccccc1)C[C@@H](O)[C@H](Cc1ccccc1)NC(=O)OC(C)(C)C)C(=O)N[C@@H](Cc1ccccc1)C(N)=O` [L-685,458, reference compound]: in assay [1] (L-685,458 10 μM for three days), the NeuroD1 expression result is recorded as “increased further”, the “expression of Ngn3 versus activin A alone or retinoic acid with FGFs” value is “approximately 50 fold” and the “increase of insulin expression” value stood at 70 fold. Also, in assay [1] (L-685,458 10 μM, maximal inhibition on day three), the “expression of Hes-1” value was “decrease”.
In the case of fibronectin, the “formation of definitive endoderm (real-time PCR)” value in assay [2] (H9P55, fibronectin vs MATRIGEL coated plates) is “equivalent”.
For the molecule Group 9: IL-4 (10 ng/ml), in the assay on H9P44 cells, the CXCR4 relative expression turned out to be 1.4, the Goosecoid relative expression was found to be 0.9, the HNF-3B relative expression worked out at 0.89 and the Oct-4 relative expression stood at 0.85. In the assay with H9P44 cells, the SOX-2 relative expression was found to be 1.2 and the Sox17 relative expression is 1.

B1: Wnt-7a: Wnt ligand (Catalog #3008-WN-025, R&D Systems, MN) (protein, UniProt O00755 32-349, looked up)
Protein Wnt-7a: LGASIICNKIPGLAPRQRAICQSRPDAIIVIGEGSQMGLDECQFQFRNGRWNCSALGERTVFGKELKVGSREAAFTYAIIAAGVAHAITAACTQGNLSDCGCDKEKQGQYHRDEGWKWGGCSADIRYGIGFAKVFVDAREIKQNARTLMNLHNNEAGRKILEENMKLECKCHGVSGSCTTKTCWTTLPQFRELGYVLKDKYNEAVHVEPVRASRNKRPTFLKIKKPLSYRKPMDTDLVYIEKSPNYCEEDPVTGSVGTQGRACNKTAPQASGCDLMCCGRGYNTHQYARVWQCNCKFHWCCYVKCNTCSERTEMYTCK
Turning to B1, the “definitive endoderm markers (real-time PCR)” value (“definitive endoderm markers” for short) in assay [2] is reported as “minimal impact”.

B2: Wnt-5a: Wnt ligand (Catalog #654-WN-010, R&D Systems, MN) (protein, UniProt P41221 62-380, looked up)
Protein Wnt-5a: IIGAQPLCSQLAGLSQGQKKLCHLYQDHMQYIGEGAKTGIKECQYQFRHRRWNCSTVDNTSVFGRVMQIGSRETAFTYAVSAAGVVNAMSRACREGELSTCGCSRAARPKDLPRDWLWGGCGDNIDYGYRFAKEFVDARERERIHAKGSYESARILMNLHNNEAGRRTVYNLADVACKCHGVSGSCSLKTCWLQLADFRKVGDALKEKYDSAAAMRLNSRGKLVQVNSRFNSPTTQDLVYIDPSPDYCVRNESTGSLGTQGRLCNKTSEGMDGCELMCCGRGYDQFKTVQTERCHCKFHWCCYVKCKKCTEIVDQFVCK
As to B2, the “definitive endoderm markers” value in assay [2] is reported as “minimal impact”.

B3: DKK1: Wnt Inhibitor; inhibitor of Wnt-3 signaling (protein, UniProt O94907 32-266, looked up)
Dickkopf-related protein 1: TLNSVLNSNAIKNLPPPLGGAAGHPGSAVSAAPGILYPGGNKYQTIDNYQPYPCAEDEECGTDEYCASPTRGGDAGVQICLACRKRRKRCMRHAMCCPGNYCKNGICVSSDQNHFRGEIEETITESFGNDHSTLDGYSRRTTLSSKMYHTKGQEGSVCLRSSDCASGLCCARHFWSKICKPVLKEGQVCTKHRRKGSHGLEIFQRCYCGEGLSCRIQKDHHQASNSSRLHTCQRH
Turning to B3, in assay [2] (H9, 100 ng/ml DKK1 with 20 ng/ml Wnt3a and 100 ng/ml activin A, day 5), the “expression level of differentiation markers (CXCR4, GATA4, HNF-3beta, SOX17, goosecoid)” value is recorded as “dramatically decrease”.

B4: Wnt-5b: Wnt ligand (Catalog #3006-WN-025, R&D Systems, MN) (protein, UniProt Q9H1J7 18-359, looked up)
Protein Wnt-5b: QLLTDANSWWSLALNPVQRPEMFIIGAQPVCSQLPGLSPGQRKLCQLYQEHMAYIGEGAKTGIKECQHQFRQRRWNCSTADNASVFGRVMQIGSRETAFTHAVSAAGVVNAISRACREGELSTCGCSRTARPKDLPRDWLWGGCGDNVEYGYRFAKEFVDAREREKNFAKGSEEQGRVLMNLQNNEAGRRAVYKMADVACKCHGVSGSCSLKTCWLQLAEFRKVGDRLKEKYDSAAAMRVTRKGRLELVNSRFTQPTPEDLVYVDPSPDYCLRNESTGSLGTQGRLCNKTSEGMDGCELMCCGRGYNQFKSVQVERCHCKFHWCCFVRCKKCTEIVDQYICK
Consider B4, for which the “definitive endoderm markers” value in assay [2] is given as “minimal impact”.

B5: BMP-4: BMP-4 (Catalog #314-BP-010, R&D Systems, MN) (protein, UniProt P12644 293-408, looked up)
Bone morphogenetic protein 4: SPKHHSQRARKKNKNCRRHSLYVDFSDVGWNDWIVAPPGYQAFYCHGDCPFPLADHLNSTNHAIVQTLVNSVNSSIPKACCVPTELSAISMLYLDEYDKVVLKNYQEMVVEGCGCR
Consider B5, for which the “mesoderm marker BRY” value in assay [2] (H9P53, BMP-4 25 ng/ml added to the DE protocol) is recorded as “induce formation”.

The values above are taken from patent US20100255580A1, “Differentiation of Human Embryonic Stem Cells” (LIFESCCAN, INC., priority 2007, published 2010).
